Measurements as given in patent US6051589A, “Diphenyloxazoline derivatives” (Bayer Aktiengesellschaft, priority 1994, dated 2000).
Read-outs that look alike come from different tables or passages of the source.

Legend:
[1] = partition coefficient log p (octanol/water); type: physicochemical
[2] = tested on: red spider mite Tetranychus urticae; assay: Tetranychus Test (OP resistant/dipping treatment); type: in vivo; settings: after 7 days, concentration of active compound 0.01%, all developmental stages, bean plants, OP resistant
Description: Tetranychus Test (OP resistant/dipping treatment)
Solvent: 7 parts by weight of dimethylformamide
(§1) Emulsifier: 1 part by weight of alkylaryl polyglycol ether
To produce a suitable preparation of active compound, 1 part by weight of active compound is mixed with the stated amount of solvent and the stated amount of emulsifier, and the concentrate is diluted with emulsifier-containing water to the desired concentrations.
Bean plants (Phaseolus vulgaris) which are heavily infested with all developmental stages of the red spider mite Tetranychus urticae are dipped in a preparation of the active compound of the desired concentration.
After the desired time, the action in percent is determined. 100% means that all the spider mites have been killed, 0% means that none of the spider mites have been killed.

[3] = tested on: mustard beetle larvae (Phaedon cochleariae); assay: Phaedon Larvae Test; type: in vivo; settings: concentration of active compound 0.1%, cabbage leaves, read-out: degree of mortality
Description: Solvent: 3 parts by weight of dimethylformamide
as §1
To produce a suitable preparation of active compound, 1 part by weight of active compound is mixed with the stated amount of solvent and the stated amount of emulsifier, and the concentrate is diluted with water to the desired concentration.
After the desired time, the destruction in % is determined. 100% means that all the beetle larvae have been killed; 0% means that none of the beetle larvae have been killed.

Row | SMILES | logD ([1]; pH 7.5, read-out: log p) | degree of mortality [2] | mortality at 0.1 % [3] | logD ([1]; pH: 7.4, read-out: partition coefficient log p (octanol/water))
1 | CC(C)Cc1ccc(C2COC(c3c(F)c(F)cc(F)c3F)=N2)cc1 (stereo not shown) [Example 12] | 5.35 | – | – | –
2 | COc1c(F)cc(F)c(F)c1C1=NC(c2ccc(C(C)(C)C)cc2)CO1 (stereo not shown) [Example 2] | 4.59 | 98% | 65% | –
3 | CC(C)(C)c1ccc(C2COC(c3cc(F)c(Cl)cc3Cl)=N2)cc1 (stereo not shown) [Example 6] | 5.65 | – | – | –
4 | CC(C)(C)c1ccc(C2COC(c3c(F)c(F)cc(F)c3F)=N2)cc1 (stereo not shown) [Example 1, 4-(4-tert-butylphenyl)-2-(2,3,5,6-tetrafluorophenyl)-1,3-oxazoline] | – | 98% | 65% | 4.7
5 | CC(C)(C)c1ccc(C2COC(c3cc(F)c(F)cc3F)=N2)cc1 (stereo not shown) [Example 5] | 4.78 | 98% | – | –
6 | Cc1ccc(C2COC(c3c(F)c(F)cc(F)c3F)=N2)cc1 (stereo not shown) [Example 14] | 3.69 | – | – | –

Second part, led by results:

Row | logD ([1]; pH 7.5, read-out: log p) | SMILES | degree of mortality [2] | mortality at 0.1 % [3] | logD ([1]; pH: 7.4, read-out: partition coefficient log p (octanol/water))
7 | 5.12 | CC(C)(C)c1ccc(C2COC(c3c(F)c(F)c(F)c(F)c3F)=N2)cc1 (stereo not shown) [Example 3] | – | – | –
8 | 4.78 | CC(C)(C)c1ccc(C2COC(c3cc(F)c(F)c(F)c3F)=N2)cc1 (stereo not shown) [Example 4] | – | – | –
9 | 5.13 | CC(C)(C)c1ccc(C2COC(c3c(F)cc(C(F)(F)F)cc3F)=N2)cc1 (stereo not shown) [Example 9] | – | – | –
10 | 4.45 | CC(C)(C)c1ccc(C2COC(c3c(F)ccc(F)c3F)=N2)cc1 (stereo not shown) [Example 8] | – | – | –
11 | 4.43 | CC(C)(C)c1ccc(C2COC(c3c(F)cc(F)cc3F)=N2)cc1 (stereo not shown) [Example 7] | – | – | –
